Converted amounts (≈) assume the structure as drawn. Where two headings read alike, the source gives them in different places.
Assays:
[1] = tested on: S. mansoni juvenile worms; experiment: In vivo efficacy, mouse model of juvenile (21-day old) S. mansoni infection; details: for in vivo EC50 against juvenile worms: mouse model, single oral dose (Fig 9C); for clearing juvenile worm infections in vivo: 12.5 mg/kg oral single dose (Fig 9D); for Worms remaining: Juvenile infection; for worm reduction: juvenile worms; for efficacy in vivo against juvenile worm infection: 21-day old infections, single oral dose, Aqueous formulation (Fig 8)
Description: Prior to in vivo efficacy experiments, a single animal was given a dose of drug (using the same formulation) that was twice as large as that planned for use in the efficacy experiments and was observed periodically for adverse clinical signs for 24h by trained veterinarians. Adverse clinical signs checked include postural defect, vocalization, oculo-nasal discharge, hypersalivation, change in activity, abnormal gait, respiration and pulse, piloerection, loss of pupillary reflex, eyelid reflex, chromodacryorrhea, reaction to handling, tremor, convulsions, prostration, diarrhoea, cachexia, emaciation. […] In vivo efficacy was assessed in female CD1 mice using methods based on those previously described. Mice were infected subcutaneously with 150 cercariae. Test compounds were suspended in 7% Tween-80 / 3% Ethanol / double distilled water and drug dispersal was facilitated by vortexing and using a sonicating water bath (Formulation “Aqueous”). Alternatively, drugs were first dissolved in DMSO, then diluted with corn oil to give a 1:19 DMSO:corn oil solution/suspension of test compound (Formulation “Corn oil”). Dosing was by oral gavage. Mice in the negative control groups were given the drug suspension vehicle only. Positive controls for treatment of adult, day 42 old, infections were treated with PZQ and those for juvenile, day 21 old, infections with artemether, which unlike PZQ is effective against the juvenile worm infections in mice. During and following treatment, mice were closely observed for any ill effects by staff experienced in animal handling. This involved individuals who were blinded to the treatment groups. Effects they were trained to look for included hunching, immobility, piloerection, subdued behaviour, diarrhoea and loss of body condition. None were seen. Worms were recovered by portal perfusion with citrate saline 8–14 days post treatment and counted. Differences between groups relative to the non-drug treated controls were assessed for statistical significance by Student’s unpaired t-test using GraphPad Prism Software. P values are presented as follows:- ns–P > 0.05 (not significant), * P ≤ 0.05, ** P ≤ 0.01, *** P ≤ 0.001, **** P ≤ 0.0001.
For pharmacokinetic analysis during the in vivo efficacy experiments individual animals were only sampled once. Samples were taken from one animal in each experimental group at each of 1, 4, 8 h and samples from two animals in each group were taken at 24 h.

[2] = Metabolic stability in human hepatocytes; type: in vitro ADME; details: hepatocytes (suspension); for remaining at 1.5 h, 1 µM: pH 7.4, 90 min incubation, read-out: Human hepatocyte % remaining at 90 min; for remaining at 0.5 h, 1 µM: pH 7.4, 30 min incubation, read-out: Human hepatocyte % remaining at 30 min
Description: 100 μM compound stock solution was prepared from 5 μL of 4 mM stock in DMSO + 195 μL MeCN. Working solution (2 μM compound) was prepared using 10 μL of 100 μM stock + 490 μL buffer pH 7.4 (KHB supplemented with CaCl2, NaHCO3, HEPES, fructose, glycine; pH 7.4).
Working solution (25 μL, 2 μM) was added in duplicate to wells in a 0.5 mL per well, 96 well plate which was preincubated to reach 37°C. Hepatocyte suspension (25 μL) was added to each plate, and the plate incubated (37°C, 95% relative humidity with 5% CO2 supply) under gentle mixing (Thermomixer @300 rpm). After designated time periods, ice-cold MeCN (250 μL) was added with a suitable standard. For T = 0 min, ice-cold MeCN (250 μL) with suitable standard was added to the working solution (2 μM) and hepatocyte suspension (25 μL) added. The plates for each time point were shaken, sonicated for 5 mins and kept at 4°C until the final plate was processed. The plates were centrifuged at 4,000 rpm for 20 min, supernatant (110 μL) was mixed with water (110 μL) and the samples analysed using LC-MS/MS.

[3] = tested on: Adult S. mansoni; experiment: In vitro adult S. mansoni worm assay; type: cell-based; details: Schistosoma mansoni, 120 h incubation
Description: (§1) The Puerto Rican strain of S. mansoni was maintained in Biomphalaria glabrata and CD1 mice. Oncomelania hupensis (hupensis) infected with S. japonicum (Chinese strain) and Bulinus truncatus (truncatus) infected with Egyptian strain S. haematobium were obtained from BEI Resources, NIAID, NIH. Infection of mice for worm recovery was as previously described except that, whereas cercariae of S. mansoni and S. haematobium were obtained by shedding from infected snails under lights, cercariae of S. japonicum were obtained by gently crushing the snails. Furthermore, adult S. haematobium were recovered after 12 weeks following mouse infection.
(§2) In vitro efficacy was carried out as previously described. In brief, worms were recovered from infected mice by portal perfusion 3 weeks (for juveniles) or 6 weeks (for adults) post-infection using warm perfusion medium (Dulbecco’s Modified Eagle’s Medium [DMEM], 2mM L-glutamine, 100 Units/ml penicillin, 100μg/ml streptomycin, 20mM Hepes, 10 Units/ml heparin [Sigma, UK]). Worms were washed free of red blood cells using the perfusion medium, and finally suspended in complete medium (cDMEM: DMEM, 2mM L-glutamine, 100 Units/ml penicillin, 100μg/ml streptomycin, 10% FCS). The juvenile assays were carried out in 96-well plates, each well containing 6–8 worms in 200 μL cDMEM. The adult worm assay was in 24-well plates, each well containing 3 worm pairs in 1mL cDMEM. Both the juvenile and adult worm cultures were kept at 37° C, in an atmosphere of 5% CO2. Drug effects were determined on day 5 following drug treatment by assessing the viability of individual worms as described in [14].

[4] = tested on: Juvenile S. mansoni; experiment: In vitro juvenile (3 week old) S. mansoni worm assay; type: cell-based; details: Schistosoma mansoni; for EC50: Table 2, in vitro, 120 h incubation
Description: as §1, §2

[5] = Plasma protein binding in human plasma at 10 uM, equilibrium dialysis; type: in vitro ADME; details: for recovery at 6 h, 10 µM: human, human plasma, pH 7.4
Description: Each experiment was performed in duplicate for the compound being tested. A working solution of compound was prepared from 10 μL of 10 mM solution in DMSO + 190 μL 40:60 MeCN:Water. A Total solution was prepared from 12 μL of working solution + 588 μL plasma (compound conc: 10 μM, DMSO: 0.1%, ACN:0.76%). In an equilibrium dialysis chamber, Total solution (200 μL) was added to the plasma chamber and PBS pH 7.4 (350 μL) was added to the buffer chamber. The chamber was then incubated at 37°C for 6 h with constant shaking at 400 rpm (Thermomixer comfort, Eppendorf). Aliquots were removed from both plasma and buffer chambers and the following test samples prepared: Blank: blank Plasma (20 μL) + blank buffer (60 μL), Buffer: blank plasma (20 μL) + test buffer (60 μL), Plasma: test plasma (20 μL) + blank buffer (60 μL), Total: total sample (20 μL) + blank buffer (60 μL). Ice-cold acetonitrile (160 μL), containing a suitable standard was added to all samples, they were shaken vigorously and centrifuged at 4,000 rpm for 20 min at 15°C. Supernatant (110 μL) from each sample was diluted with water (110 μL) and the sample analysed by LC-MS/MS.
% Free = 100 × (AREA in buffer × dilution factor)/(AREA in Plasma × dilution factor)
% Recovery = 100 ×[(Avg AREA in buffer × dilution factor) + (Avg AREA in Plasma × dilution factor)] / (Avg AREA in Total × dilution factor)

[6] = mouse, oral 12.5 mg/kg, formulation corn oil
[7] = Table 2, in vitro, read-out: Adult S. mansoni EC50
[8] = Table 3, S. mansoni, read-out: Sm adult EC50
[9] = mouse, oral 50 mg/kg, formulation Aq

Row | in vivo EC50 against juvenile worms [1] | remaining at 1.5 h, 1 µM [2] | EC50 [3, 7] | EC50 [3, 8] | EC50 [4] | Human plasma protein %binding [5] | recovery at 6 h, 10 µM [5] | remaining at 0.5 h, 1 µM [2] | SMILES | clearing juvenile worm infections in vivo ([1]; mouse) | Worms remaining [1, 6] | efficacy in vivo against juvenile worm infection ([1]; mouse) | Worms remaining [1, 9] | other results
1 | below 6.25 mg/kg | 98% | 0.0153 µM | 0.0153 µM | 0.021 µM | 100% | 97.8% |  | Fc1c(-c2c(C(F)(F)F)nc3cnc(-c4cccc(C(F)(F)C(F)(F)F)c4)cn23)ccc2[nH]ncc12 [LSHTM-3608] | extremely effective | 0% |  |  | worm reduction ([1]; mouse, single oral dose 12.5 mg/kg): 100%
2 |  |  | 0.046 µM | 0.0462 µM | 0.027 µM | 99.9895% | 97.1% | 52% | CC(C)c1nc2cnc(-c3ccc(F)c(C(F)(F)F)c3)cn2c1-c1c(F)cc(O)cc1F [LSHTM-3520] |  |  | effective | 62% | Worms remaining ([1]; mouse, oral 200 mg/kg, formulation Aq): 16%
3 |  | 75% | 0.0054 µM | 0.0054 µM | 0.0041 µM | 99.998% | 62.7% |  | CC(C)c1cc(-c2cn3c(-c4ccc5[nH]ncc5c4F)c(C4CC4)nc3cn2)ccc1F [LSHTM-3686] |  |  |  |  | Worms remaining ([1]; mouse, oral 6.25x2 mg/kg (12 h apart), formulation corn oil): 25%; worm burden reduction ([1]; mouse, juvenile infection, 6.25 mg/kg given twice 12 h apart): 75%
4 | below 6.25 mg/kg | 105% | 0.0097 µM | 0.0097 µM | 0.0107 µM | 100% | 85.8% |  | Fc1ccc(-c2cn3c(-c4ccc5[nH]ncc5c4F)c(C(F)(F)F)nc3cn2)cc1C(F)(F)C(F)(F)F [LSHTM-3645] | extremely effective | 0% |  |  | Worms remaining ([1]; mouse, oral 6.25 mg/kg, formulation corn oil): 1.8%; worm reduction ([1]; mouse, single oral dose 6.25 mg/kg): 98%
5 |  | 98% | 0.0315 µM |  | 0.0332 µM | 99.9973% | 92.4% | 99% | CC(C)c1nc2cnc(-c3ccc(F)c(C(F)(F)F)c3)cn2c1-c1ccc2[nH]ncc2c1F [LSHTM-3604] |  |  | effective | 12% | Worms remaining ([1]; mouse, oral 25 mg/kg, formulation corn oil): 13%; IC50 ([4]; 10 fold the in vitro value (assay run at 10% of whole blood protein), read-out: calculated whole blood IC50): 0.152 µg/mL (≈ 0.332 µM)
6 |  | 105% | 0.027 µM | 0.0273 µM | 0.048 µM | 99.9895% | 97.4% |  | Fc1ccc(-c2cn3c(-c4ccc5[nH]ncc5c4F)c(C(F)(F)F)nc3cn2)cc1C(F)(F)F [LSHTM-3642, 3-(4-fluoro-1H-indazol-5-yl)-6-(4-fluoro-3-(trifluoromethyl)phenyl)-2-(trifluoromethyl)imidazo[1,2-a]pyrazine] |  | 5% |  |  | Worms remaining ([1]; mouse, oral 25 mg/kg, formulation Aq): 1.8%

Source: PMC8321398, “The discovery of a novel series of compounds with single-dose efficacy against juvenile and adult Schistosoma species” (PLoS Neglected Tropical Diseases, 2021)
